The text below walks through data of patent US20050215520A1, “Complex of organic medicines and beta-cyclodextrin derivatives and its preparing process” (priority 2002, published 2005).

The conditions of data set [1]: medicine alone; cited from earlier work.
Data set [2] is described as follows: Critical mole ratio by saturated solution method. The class given is physicochemical. As to conditions: 40% hydroxide propyl beta-cyclodextrin aqueous solution, mean of 3 tests. As to the method:
The critical mole ratio and critical mass ratio in the present invention may be determined with the undermentioned saturated solution method. Weighing accurately medicine, and placing in the container, and gradually adding beta-cyclodextrin aqueous solution metered accurately with agitation, until the medicine is dissolved exactly and completely in this aqueous solution. Calculate both mass number here and convert it to mole number. Repeat the above-mentioned test, and get the mean mole number of repeated test, and calculate critical mole ratio with the undermentioned formula: Critical mole ratio of medicine=mean mole number of beta-cyclodextrin/mean mole number of medicine For example, critical mole ratio of Artemisinin and hydroxide propyl beta-cyclodextrin is measured with the undermentioned method: Weight accurately Artemisinin, and grind in tissue grinding device, and place in beaker, and gradually add 40% hydroxide propyl beta-cyclodextrin aqueous solution metered accurately while agitation, until Artemisinin is dissolved exactly and completely in this aqueous solution. Calculate both mass number here and convert it to mole number.

For the next data set, the system named is plasmodium. As to the kind of experiment: Medicine efficacy on killing plasmodium in mice infected plasmodium. The class given is in vivo.
A short description of data set [3]: Critical value of complex by unit test method (complexes of various compounding ratio dissolved in set water, solution properties observed). The class given is physicochemical. As to conditions: hydroxide propyl beta-cyclodextrin to medicine. The procedure:
The critical value of organic medicine and beta-cyclodextrin derivatives in the present invention, may be determined with the undermentioned unit test method. All kinds of mole ratio and mass ratio of the medicine and beta-cyclodextrin derivative is made into complex with expanding loose body according to the method of the present invention, then the set water is added into the a variety of compounding ratio of complex, and by observing properties of the solution, the compounding ratio of exactly dissolving in water and with stable property, acts as the critical mole ratio or critical mass ratio of the present invention.

Data set [4] is described as follows: Critical mole ratio or critical mass ratio of medicines and beta-cyclodextrin derivative (Table 1, examples). The class given is physicochemical. The conditions noted are these: beta-cyclodextrin derivative (hydroxide propyl beta-cyclodextrin in the examples) to medicine; complex dissolves exactly in water to stable solution. As to the method: The critical mole ratio or critical mass ratio in the present invention refers to the mole ratio and mass ratio when complex of organic medicine and beta-cyclodextrin derivatives prepared with the method of this invention is dissolved exactly in water of specified amount to form stable aqueous solution.
The critical value of organic medicine and beta-cyclodextrin derivatives in the present invention, may be determined with the undermentioned unit test method.
All kinds of mole ratio and mass ratio of the medicine and beta-cyclodextrin derivative is made into complex with expanding loose body according to the method of the present invention, then the set water is added into the a variety of compounding ratio of complex, and by observing properties of the solution, the compounding ratio of exactly dissolving in water and with stable property, acts as the critical mole ratio or critical mass ratio of the present invention.
The critical mole ratio and critical mass ratio in the present invention may be determined with the undermentioned saturated solution method.
Weighing accurately medicine, and placing in the container, and gradually adding beta-cyclodextrin aqueous solution metered accurately with agitation, until the medicine is dissolved exactly and completely in this aqueous solution. Calculate both mass number here and convert it to mole number. Repeat the above-mentioned test, and get the mean mole number of repeated test, and calculate critical mole ratio with the undermentioned formula: Critical mole ratio of medicine=mean mole number of beta-cyclodextrin/mean mole number of medicine

By ED50 is commonly meant the midpoint of the dose-response relation.

The structures appear in SMILES notation.

Consider `C[C@@H]1CC[C@H]2[C@@H](C)C(=O)O[C@@H]3O[C@@]4(C)CC[C@@H]1[C@]32OO4` [Artemisinin], for which the “water solubility of the medicine” value in data set [1] is on record as “hardly water-soluble”. Besides, the critical mole ratio entry in data set [2] is listed as “about 5”. The compound also showed an ED90 comparison p.o./iv in the data set on plasmodium (ED90 of original medicine p.o. relative to its complex iv (complex = 1)) of 2.13. Moreover, in the data set on plasmodium (mice infected plasmodium, route of administration po., read-out: efficacy (killing) ED50), the ED50 worked out at 19 mg/kg. Also, in data set [3], the “critical mass ratio of complex” value was “about 28” and the “critical mole ratio of complex” value is reported as “about 5”. In addition, the “Critical value mole ratio” value in data set [4] was determined as 5.
